Tests used:
rat [1] = settings: Carcinogenicity, fischer, Oral, Gavage/Intubation, dose end: 103 week, group: systemic
rat [2] = settings: Sub-acute repeat dose toxicity, fischer, Oral, Gavage/Intubation, dose end: 14 day, group: systemic
mouse [3] = settings: Subchronic oral toxicity in rodents, b6c3f1, Gavage/Intubation, dose end: 13 week, group: systemic
rat [4] = settings: Subchronic oral toxicity in rodents, fischer, Gavage/Intubation, dose end: 13 week, group: systemic
mouse [5] = settings: Carcinogenicity, b6c3f1, Oral, Gavage/Intubation, dose end: 103 week, group: systemic
mouse [6] = settings: Sub-acute repeat dose toxicity, b6c3f1, Oral, Gavage/Intubation, dose end: 14 day, group: systemic
rabbit = settings: Prenatal developmental toxicity study, new zealand white, Oral, Gavage/Intubation, dose end: 19 GD
rat [7] = settings: Sub-acute repeat dose toxicity, fischer, Oral, Feed, dose end: 14 day, group: systemic
mouse [8] = settings: Prenatal developmental toxicity study, cd1, Oral, Feed, dose end: 15 GD
mouse [9] = settings: Multigenerational reproductive toxicity study, cd1, Oral, Feed, dose end: 2 generation
mouse [10] = settings: Subchronic oral toxicity in rodents, b6c3f1, Feed, dose end: 13 week, group: systemic
mouse [11] = settings: Carcinogenicity; b6c3f1; Oral; Feed; dose end: 103 week; group: systemic; systemic / in life observation / clinical signs / [other] + systemic / pathology microscopic / ovary / atrophy + systemic / pathology …
rat [12] = settings: Carcinogenicity; fischer; Oral; Feed; dose end: 103 week; group: systemic; systemic / in life observation / clinical signs / muscle fasciculation + systemic / in life observation / clinical signs / skeletal muscle …
rat [13] = settings: Subchronic oral toxicity in rodents, fischer, Feed, dose end: 13 week, group: systemic
mouse [14] = settings: Sub-acute repeat dose toxicity, b6c3f1, Oral, Feed, dose end: 14 day, group: systemic
mouse [15] = settings: Carcinogenicity; cd1; Oral; Feed; dose end: 97 week; group: systemic; systemic / in life observation / body weight / body weight + systemic / in life observation / body weight / body weight gain + systemic / …
dog [16] = settings: Subchronic oral toxicity in nonrodent, beagle, Feed, dose end: 90 day, group: systemic, systemic / clinical chemistry / albumin / albumin + systemic / clinical chemistry / calcium / calcium + systemic / clinical chemistry / …
rat [17] = settings: Multigenerational reproductive toxicity study, sprague dawley, Oral, Feed, dose end: 2 generation
rat [18] = settings: Prenatal developmental toxicity study, sprague dawley, Oral, Gavage/Intubation, dose end: 15 GD
dog [19] = settings: Chronic toxicity; beagle; Oral; Feed; dose end: 52 week; group: systemic; systemic / clinical chemistry / albumin / albumin + systemic / clinical chemistry / cholesterol / cholesterol + systemic / clinical …
rat [20] = settings: Combined chronic toxicity/carcinogenicity, sprague dawley, Oral, Feed, dose end: 104 week, group: systemic
[21] = systemic / pathology microscopic / liver / vacuolization cytoplasmic + systemic / pathology microscopic / liver / degeneration
[22] = systemic / pathology microscopic / liver / vacuolization cytoplasmic + systemic / pathology microscopic / liver / degeneration + systemic / …
[23] = systemic / in life observation / body weight / body weight
[24] = systemic / in life observation / body weight / body weight + systemic / in life observation / clinical signs / abnormal posture + systemic…
[25] = systemic / pathology microscopic / liver / vacuolization cytoplasmic
[26] = systemic / pathology microscopic / liver / vacuolization cytoplasmic + systemic / in life observation / body weight / body weight + systemic…
[27] = systemic / pathology microscopic / liver / necrosis + systemic / pathology microscopic / liver / vacuolization cytoplasmic + systemic / in …
[28] = systemic / pathology microscopic / liver / vacuolization cytoplasmic + systemic / in life observation / clinical signs / defecation (…
[29] = group: developmental, developmental / developmental malformation / general / [other]
[30] = group: maternal, reproductive / reproductive performance / resorptions / resorptions + systemic / in life observation / body weight / body weight + systemic…
[31] = systemic / in life observation / body weight / body weight gain + systemic / in life observation / clinical signs / [other] + systemic / in …
[32] = systemic / in life observation / clinical signs / lethargy + systemic / in life observation / clinical signs / fur (altered appearance) + …
[33] = group: developmental, systemic / in life observation / body weight / fetal weight
[34] = group: maternal, reproductive / offspring survival early / dead fetuses / dead fetuses
[35] = group: offspring, systemic / in life observation / clinical signs / cannibalism
[36] = group: offspring, systemic / in life observation / clinical signs / cannibalism + developmental / offspring survival late / [other] / [other] + systemic / in …
[37] = group: parental, systemic / in life observation / body weight / body weight + systemic / in life observation / clinical signs / cannibalism + systemic / in …
[38] = group: parental, systemic / in life observation / food consumption / food consumption + systemic / in life observation / water consumption / water …
[39] = group: reproductive, reproductive / offspring survival early / birth index / birth index + reproductive / reproductive performance / dystocia / dystocia + …
[40] = group: reproductive, reproductive / reproductive performance / estrous cycle / abnormal
[41] = systemic / in life observation / body weight / body weight + systemic / in life observation / body weight / body weight gain + systemic / in…
[42] = systemic / in life observation / clinical signs / [other]
[43] = systemic / in life observation / clinical signs / [other] + systemic / in life observation / clinical signs / fur (altered appearance) + …
[44] = group: offspring, systemic / in life observation / body weight / offspring (pup) weight + systemic / in life observation / body weight / offspring (pup) …
[45] = group: parental, systemic / in life observation / body weight / body weight gain
[46] = group: parental, systemic / in life observation / body weight / body weight gain + systemic / in life observation / body weight / body weight + systemic / in…
[47] = group: developmental, developmental / developmental malformation / bone / incomplete ossification
[48] = group: developmental, developmental / developmental malformation / bone / incomplete ossification + developmental / developmental malformation / bone / short …
[49] = group: maternal, systemic / in life observation / body weight / body weight gain + systemic / in life observation / clinical signs / [other] + systemic / in …
[50] = systemic / hematology / erythrocyte (rbc) count differential / erythrocyte (rbc) + systemic / hematology / hematocrit (hct) / hematocrit (…

`OC[P+](CO)(CO)CO.[Cl-]` [Tetrakis(hydroxymethyl)phosphonium chloride] was tested, and the LOAEL (rat [1]; [21]) was 3.75 mg/kg/day, the NOAEL (rat [1]; [21]) was < 3.75 mg/kg/day and the LEL (rat [1]; [22]) was 3.75 mg/kg/day. For the same compound, the NEL (rat [1]; [22]) was < 3.75 mg/kg/day, the LEL (rat [2]; [23]) was 18.8 mg/kg/day and the LOAEL (rat [2]; [23]) was 37.5 mg/kg/day. The NEL (rat [2]; [24]) was 9.4 mg/kg/day, the NOAEL (rat [2]; [24]) was 18.8 mg/kg/day and the LEL (mouse [3]; [25]) was 15 mg/kg/day. It also gave an NEL (mouse [3]; [26]) of 4.5 mg/kg/day, an NOAEL (mouse [3]; [26]) of 15 mg/kg/day and an LOAEL (mouse [3]; systemic / pathology microscopic / liver / vacuolization cytoplasmic + systemic / pathology microscopic / liver / necrosis) of 45 mg/kg/day. The NEL (rat [4]; systemic / in life observation / body weight / body weight + systemic / pathology microscopic / liver / necrosis + systemic / pathology …) was 3.75 mg/kg/day, the LOAEL (rat [4]; [27]) was 30 mg/kg/day and the NOAEL (rat [4]; [27]) was 15 mg/kg/day. For the same compound, the LEL (rat [4]; [25]) was 7.5 mg/kg/day, the LOAEL (mouse [5]; [25]) was 7.5 mg/kg/day and the NOAEL (mouse [5]; [25]) was < 7.5 mg/kg/day. The LEL (mouse [5]; [28]) was 7.5 mg/kg/day, the NEL (mouse [5]; [28]) was < 7.5 mg/kg/day and the LEL (mouse [6]; [23]) was 18.8 mg/kg/day. The LOAEL (mouse [6]; [23]) was 150 mg/kg/day, the NEL (mouse [6]; [23]) was < 18.8 mg/kg/day and the NOAEL (mouse [6]; systemic / in life observation / body weight / body weight + systemic / in life observation / mortality / mortality) was 75 mg/kg/day.
For `NC(=O)N/N=C/c1ccc([N+](=O)[O-])o1` [Nitrofurazone], the LEL (rabbit; [29]) was 20 mg/kg/day, the LOAEL (rabbit; [29]) was 20 mg/kg/day and the NEL (rabbit; [29]) was 15 mg/kg/day. It also gave an NOAEL (rabbit; [29]) of 15 mg/kg/day, an LOAEL (rabbit; group: maternal, reproductive / reproductive performance / resorptions / resorptions) of 20 mg/kg/day and an NEL (rabbit; [30]) of 5 mg/kg/day. It also gave an NOAEL (rabbit; [30]) of 15 mg/kg/day, an LEL (rabbit; group: maternal, systemic / in life observation / body weight / body weight) of 10 mg/kg/day and an LOAEL (rat [7]; [31]) of 125 mg/kg/day. For the same compound, the NOAEL (rat [7]; [31]) was 62.5 mg/kg/day, the LEL (rat [7]; [32]) was 31.5 mg/kg/day and the NEL (rat [7]; [32]) was < 31.5 mg/kg/day. For the same compound, the LEL (mouse [8]; [33]) was 81.7 mg/kg/day, the LOAEL (mouse [8]; [33]) was > 81.7 mg/kg/day and the NEL (mouse [8]; [33]) was 41.2 mg/kg/day. The NOAEL (mouse [8]; [33]) was ≥ 81.7 mg/kg/day, the LEL (mouse [8]; [34]) was 41.2 mg/kg/day and the LOAEL (mouse [8]; [34]) was 41.2 mg/kg/day. For the same compound, the NEL (mouse [8]; [34]) was 13.6 mg/kg/day, the NOAEL (mouse [8]; [34]) was 13.6 mg/kg/day and the LEL (mouse [9]; [35]) was 15 mg/kg/day. The NEL (mouse [9]; [35]) was < 15 mg/kg/day, the LOAEL (mouse [9]; [36]) was > 112 mg/kg/day and the NOAEL (mouse [9]; [36]) was ≥ 112 mg/kg/day. The LOAEL (mouse [9]; [37]) was > 112 mg/kg/day, the NOAEL (mouse [9]; [37]) was ≥ 112 mg/kg/day and the LEL (mouse [9]; [38]) was 15 mg/kg/day. For the same compound, the NEL (mouse [9]; [38]) was < 15 mg/kg/day, the LOAEL (mouse [9]; [39]) was > 112 mg/kg/day and the NOAEL (mouse [9]; [39]) was ≥ 112 mg/kg/day. The LEL (mouse [9]; [40]) was 15 mg/kg/day, the NEL (mouse [9]; [40]) was < 15 mg/kg/day and the LOAEL (mouse [10]; [41]) was > 188 mg/kg/day. The NEL (mouse [10]; [41]) was 46.5 mg/kg/day, the NOAEL (mouse [10]; [41]) was ≥ 188 mg/kg/day and the LEL (mouse [10]; systemic / in life observation / clinical signs / [other] + systemic / in life observation / clinical signs / excitation + systemic / in …) was 93 mg/kg/day. The LEL (mouse [11]) was 14 mg/kg/day, the LOAEL (mouse [11]) was 14 mg/kg/day and the NEL (mouse [11]) was < 14 mg/kg/day. The NOAEL (mouse [11]) was < 14 mg/kg/day, the LEL (rat [12]) was 11 mg/kg/day and the LOAEL (rat [12]) was 11 mg/kg/day. The NEL (rat [12]) was < 11 mg/kg/day, the NOAEL (rat [12]) was < 11 mg/kg/day and the NEL (rat [13]; systemic / organ weight / liver / relative to body weight + systemic / in life observation / body weight / body weight + systemic / in life …) was 7.5 mg/kg/day. For the same compound, the LOAEL (rat [13]; systemic / pathology microscopic / testes / degeneration) was 15.5 mg/kg/day, the NOAEL (rat [13]; systemic / pathology microscopic / testes / degeneration + systemic / in life observation / body weight / body weight + systemic / in life …) was 7.5 mg/kg/day and the LEL (rat [13]; systemic / pathology microscopic / testes / degeneration + systemic / organ weight / liver / relative to body weight) was 15.5 mg/kg/day. For the same compound, the LOAEL (mouse [14]; [42]) was 94.5 mg/kg/day, the NOAEL (mouse [14]; [42]) was < 94.5 mg/kg/day and the LEL (mouse [14]; [43]) was 94.5 mg/kg/day. For the same compound, the NEL (mouse [14]; [43]) was < 94.5 mg/kg/day.
With `CN(C)C(=S)SSC(=S)N(C)C` [Thiram] the LEL (mouse [15]) was 24 mg/kg/day, the LOAEL (mouse [15]) was 24 mg/kg/day and the NEL (mouse [15]) was 2.5 mg/kg/day. The NOAEL (mouse [15]) was 2.5 mg/kg/day, the LEL (dog [16]) was 2.26 mg/kg/day and the LOAEL (dog [16]) was 7.01 mg/kg/day. The NEL (dog [16]) was < 2.26 mg/kg/day, the NOAEL (dog [16]) was 2.26 mg/kg/day and the LEL (rat [17]; [44]) was 4.9 mg/kg/day. For the same compound, the LOAEL (rat [17]; [44]) was 4.9 mg/kg/day, the NEL (rat [17]; [44]) was 1.7 mg/kg/day and the NOAEL (rat [17]; [44]) was 1.7 mg/kg/day. The LEL (rat [17]; [45]) was 4.7 mg/kg/day, the LOAEL (rat [17]; [45]) was 4.7 mg/kg/day and the NEL (rat [17]; [46]) was 1.6 mg/kg/day. For the same compound, the NOAEL (rat [17]; [46]) was 1.6 mg/kg/day, the LEL (rat [18]; [47]) was 7.5 mg/kg/day and the NEL (rat [18]; [47]) was < 7.5 mg/kg/day. It also gave an LOAEL (rat [18]; [48]) of 15 mg/kg/day, an NOAEL (rat [18]; [48]) of 7.5 mg/kg/day and an LEL (rat [18]; [49]) of 7.5 mg/kg/day. For the same compound, the LOAEL (rat [18]; [49]) was 7.5 mg/kg/day, the NEL (rat [18]; [49]) was < 7.5 mg/kg/day and the NOAEL (rat [18]; [49]) was < 7.5 mg/kg/day. The LEL (dog [19]) was 0.84 mg/kg/day, the LOAEL (dog [19]) was 0.84 mg/kg/day and the NEL (dog [19]) was < 0.84 mg/kg/day. The NOAEL (dog [19]) was < 0.84 mg/kg/day, the LEL (rat [20]; [50]) was 1.8 mg/kg/day and the NEL (rat [20]; [50]) was < 1.8 mg/kg/day. It also gave an LOAEL (rat [20]; systemic / in life observation / body weight / body weight gain) of 7.3 mg/kg/day and an NOAEL (rat [20]; systemic / in life observation / body weight / body weight gain + systemic / clinical chemistry / glucose / glucose + systemic / hematology…) of 1.5 mg/kg/day.

Source: EPA's ToxRefDB 2
